Test results as given in ChEMBL document CHEMBL3352654, “Synthesis, biological evaluation and SAR analysis of O-alkylated analogs of quercetin for anticancer” (Bioorg Med Chem Lett, 2014).
pIC50: −log10 of the molar value.

Legend:
Type in all cases: functional, cell-based
[1] = Anticancer activity against human LOXIMVI cells by HTS assay; conditions: LOX IMVI
[2] = Anticancer activity against human M4E cells by HTS assay
NCI-H157 = assay: Anticancer activity against human NCI-H157 cells by HTS assay
A549 = assay: Anticancer activity against human A549 cells by HTS assay
[3] = Anticancer activity against human H1299 cells by HTS assay; conditions: NCI-H1299
M14 = assay: Anticancer activity against human M14 cells by HTS assay
NCI-H522 = assay: Anticancer activity against human NCI-H522 cells by HTS assay
HOP-62 = assay: Anticancer activity against human HOP62 cells by HTS assay
[4] = Anticancer activity against human Calu1 cells by HTS assay; conditions: Calu-1
[5] = Anticancer activity against human SKBR cells by HTS assay
[6] = Anticancer activity against human 292G cells by HTS assay
HeLa = assay: Anticancer activity against human HeLa cells by HTS assay
[7] = Anticancer activity against human NCI-H1944 cells by HTS assay
[8] = Anticancer activity against human H460 cells by HTS assay; conditions: NCI-H460
[9] = Anticancer activity against human […] cells by HTS assay
NCI-H1792 = assay: Anticancer activity against human NCI-H1792 cells by HTS assay

| pIC50 [1] | pIC50 [2] | pIC50 (NCI-H157) | pIC50 (A549) | pIC50 [3] | pIC50 (M14) | pIC50 (NCI-H522) | pIC50 (HOP-62) | pIC50 [4] | pIC50 [5] | pIC50 [6] | pIC50 (HeLa) | pIC50 [7] | pIC50 [8] | pIC50 [9] | pIC50 (NCI-H1792) | Structure (SMILES) |
| --- | --- | --- | --- | --- | --- | --- | --- | --- | --- | --- | --- | --- | --- | --- | --- | --- |
| 4.34 | 4.79 | 4.73 | 4.68 | < 4.30 | 4.43 | 4.69 | 4.70 | < 4.30 | 4.96 | < 4.30 | 4.71 | 4.66 | 4.89 | < 4.30 | < 4.30 | COc1cc(O)c2c(=O)c(OC)c(-c3ccc(OC)c(O)c3)oc2c1 [AYANIN] |
| 5.43 | 5.24 | 6.08 | 5.40 | 5.32 | 5.12 | 5.09 | 5.48 | 5.03 | 5.33 | 5.27 | 5.29 | 5.35 | 5.94 | 5.25 | 5.44 | CCCOc1cc(O)c2c(=O)c(O)c(-c3ccc(OCCC)c(O)c3)oc2c1 |
